# Measurements taken from patent US12636322B2, “Bacterial strain with high cellulolytic activity” (INSTITUT NATIONAL SUPERIEUR DES SCIENCES AGRONOMIQUES DE …, priority 2021, dated 2026).
# Tested on: F. succinogenes HC4
# Experiment: Phenotypic tests for antibiotic resistance
# Format: cell-based, Fibrobacter succinogenes
# Details: liquid filter paper semi-synthetic medium, anaerobic, 48 hours at 38° C.
# Method: Eight antibiotics were tested according to EFSA recommendations for Gram-negative bacteria (31). Before being added to the filter paper semi-synthetic medium, the antibiotics were sterilized by filtration (0.22 μm filters). 24-hours cultures of strain HC4 were inoculated into media containing each antibiotic. A positive control without antibiotics was inoculated from the same culture of strain HC4 and two cultures were prepared for each condition. After 48 hours of incubation at 38° C., the observation of filter paper degradation allowed estimating the bacterial growth. In case of no degradation, a sample of liquid was taken and frozen at −20° C. for further determination of succinate production.
row,Molecule,Concentrations to inhibit growth [mg/L]
1,NC[C@H]1O[C@H](O[C@H]2[C@H](O)[C@@H](O[C@H]3O[C@H](CO)[C@@H](O)[C@H](N)[C@H]3O)[C@H](N)C[C@@H]2N)[C@H](O)[C@@H](O)[C@@H]1O [Kanamycin],8000
2,CC1(C)S[C@@H]2[C@H](NC(=O)[C@H](N)c3ccccc3)C(=O)N2[C@H]1C(=O)O [Ampicillin],32
3,CN(C)[C@@H]1C(=O)C(C(N)=O)=C(O)[C@@]2(O)C(=O)C3=C(O)c4c(O)cccc4[C@@](C)(O)[C@H]3C[C@@H]12 [Tetracyclin],1
4,C[C@@H]1O[C@@H]1P(=O)(O)O [Fosfomycin],512
5,[H]/N=C(/N)N[C@H]1[C@H](O)[C@@H](O)[C@H](O[C@@H]2O[C@@H](C)[C@](O)(C=O)[C@H]2O[C@@H]2O[C@@H](CO)[C@H](O)[C@@H](O)[C@@H]2NC)[C@@H](N/C(N)=N\[H])[C@@H]1O [Streptomycin],2048
6,Colistin,64
7,Gentamicin,128
